In PubChem BioAssay (NCI):
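How tested: cells in 96-well plates exposed to compound for 48 hours at five concentrations. TGI: total growth inhibition.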

What was measured:
Experiment in all cases: NCI tumour cell line growth inhibition, 48 h
786-0 renal = test system: 786-0 renal
A498 renal = test system: A498 renal
A549 NSCLC = test system: A549 NSCLC
ACHN renal = test system: ACHN renal
CAKI-1 renal = test system: CAKI-1 renal
CCRF-CEM leukemia = test system: CCRF-CEM leukemia
COLO 205 colon = test system: COLO 205 colon
DLD-1 colon = test system: DLD-1 colon
DMS 114 small cell lung = test system: DMS 114 small cell lung
EKVX NSCLC = test system: EKVX NSCLC
HCC-2998 colon = test system: HCC-2998 colon
HCT-116 colon = test system: HCT-116 colon
HCT-15 colon = test system: HCT-15 colon
HL-60(TB) leukemia = test system: HL-60(TB) leukemia
HOP-18 NSCLC = test system: HOP-18 NSCLC
HOP-62 NSCLC = test system: HOP-62 NSCLC
HOP-92 NSCLC = test system: HOP-92 NSCLC
HT29 colon = test system: HT29 colon
IGROV1 ovarian = test system: IGROV1 ovarian
K-562 leukemia = test system: K-562 leukemia
KM12 colon = test system: KM12 colon
KM20L2 colon = test system: KM20L2 colon
LOX IMVI melanoma = test system: LOX IMVI melanoma
LXFL 529 NSCLC = test system: LXFL 529 NSCLC
M14 melanoma = test system: M14 melanoma
M19-MEL melanoma = test system: M19-MEL melanoma
MALME-3M melanoma = test system: MALME-3M melanoma
MOLT-4 leukemia = test system: MOLT-4 leukemia
NCI-H226 lung = test system: NCI-H226 lung
NCI-H23 lung = test system: NCI-H23 lung
NCI-H460 lung = test system: NCI-H460 lung
NCI-H522 lung = test system: NCI-H522 lung
OVCAR-3 ovarian = test system: OVCAR-3 ovarian
OVCAR-4 ovarian = test system: OVCAR-4 ovarian
OVCAR-5 ovarian = test system: OVCAR-5 ovarian
OVCAR-8 ovarian = test system: OVCAR-8 ovarian
RPMI-8226 leukemia = test system: RPMI-8226 leukemia
RXF 393 renal = test system: RXF 393 renal
SF-268 CNS = test system: SF-268 CNS
SF-295 CNS = test system: SF-295 CNS
SK-OV-3 ovarian = test system: SK-OV-3 ovarian
SN12C renal = test system: SN12C renal
SNB-19 CNS = test system: SNB-19 CNS
SNB-75 CNS = test system: SNB-75 CNS
SNB-78 CNS = test system: SNB-78 CNS
SR leukemia = test system: SR leukemia
SW-620 colon = test system: SW-620 colon
TK-10 renal = test system: TK-10 renal
U251 CNS = test system: U251 CNS
UACC-257 melanoma = test system: UACC-257 melanoma
UACC-62 melanoma = test system: UACC-62 melanoma
UO-31 renal = test system: UO-31 renal
XF 498 CNS = test system: XF 498 CNS

Measured: TGI

COC(=O)C(=O)C(C(=O)C(=O)Nc1ccc(OC)cc1[N+](=O)[O-])c1nc2ccc([N+](=O)[O-])cc2[nH]c1=O (stereo not drawn)
> 100 µM: all assays above
